Laboratory results from PubChem BioAssay (NCI).
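Dose response: 5 concentrations. Exposure: 48 h. Format: 96-well plates. Endpoint: linear interpolation; highest concentration if not reached. TGI is the concentration that stops growth completely.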

How the values were obtained:
Assay in all cases: growth of human tumour cells (NCI), 48 h
[1] = test system: KM12 colon
[2] = test system: SF-539 CNS
[3] = test system: UACC-62 melanoma
[4] = test system: DU-145 prostate
[5] = test system: TK-10 renal
[6] = test system: ACHN renal
[7] = test system: PC-3 prostate
[8] = test system: M14 melanoma
[9] = test system: SF-295 CNS
[10] = test system: HCT-15 colon
[11] = test system: LOX IMVI melanoma
[12] = test system: MALME-3M melanoma
[13] = test system: SNB-19 CNS
[14] = test system: A549 NSCLC
[15] = test system: UO-31 renal
[16] = test system: RXF 393 renal
[17] = test system: A498 renal
[18] = test system: OVCAR-5 ovarian
[19] = test system: NCI-H522 lung
[20] = test system: SNB-75 CNS
[21] = test system: MDA-N
[22] = test system: SK-OV-3 ovarian
[23] = test system: SK-MEL-5 melanoma
[24] = test system: NCI-H23 lung
[25] = test system: OVCAR-4 ovarian
[26] = test system: SN12C renal
[27] = test system: COLO 205 colon
[28] = test system: SK-MEL-28 melanoma
[29] = test system: HL-60(TB) leukemia
[30] = test system: SR leukemia
[31] = test system: BT-549 breast
[32] = test system: IGROV1 ovarian
[33] = test system: HOP-92 NSCLC
[34] = test system: MCF7 breast
[35] = test system: U251 CNS
[36] = test system: RPMI-8226 leukemia
[37] = test system: K-562 leukemia
[38] = test system: HT29 colon
[39] = test system: SW-620 colon
[40] = test system: EKVX NSCLC
[41] = test system: HCT-116 colon
[42] = test system: CAKI-1 renal
[43] = test system: MDA-MB-435
[44] = test system: 786-0 renal
[45] = test system: HOP-62 NSCLC
[46] = test system: UACC-257 melanoma
[47] = test system: OVCAR-3 ovarian
[48] = test system: SF-268 CNS
[49] = test system: NCI-H226 lung
[50] = test system: MOLT-4 leukemia
[51] = test system: NCI/ADR-RES ovarian
[52] = test system: HCC-2998 colon
[53] = test system: NCI-H460 lung
[54] = test system: HS 578T breast
[55] = test system: SK-MEL-2 melanoma
[56] = test system: OVCAR-8 ovarian
[57] = test system: MDA-MB-231 breast
[58] = test system: CCRF-CEM leukemia
[59] = test system: T-47D breast

SMILES: N#C/C(=C\Nc1ccccn1)C(=O)c1ccco1
- TGI [1]: > 100 µM
- TGI [2]: > 100 µM
- TGI [3]: > 100 µM
- TGI [4]: > 100 µM
- TGI [5]: > 100 µM
- TGI [6]: > 100 µM
- TGI [7]: > 100 µM
- TGI [8]: > 100 µM
- TGI [9]: > 100 µM
- TGI [10]: > 100 µM
- TGI [11]: > 100 µM
- TGI [12]: > 100 µM
- TGI [13]: > 100 µM
- TGI [14]: > 100 µM
- TGI [15]: > 100 µM
- TGI [16]: > 100 µM
- TGI [17]: > 100 µM
- TGI [18]: > 100 µM
- TGI [19]: > 100 µM
- TGI [20]: > 100 µM
- TGI [21]: > 100 µM
- TGI [22]: > 100 µM
- TGI [23]: > 100 µM
- TGI [24]: > 100 µM
- TGI [25]: > 100 µM
- TGI [26]: > 100 µM
- TGI [27]: > 100 µM
- TGI [28]: > 100 µM
- TGI [29]: > 100 µM
- TGI [30]: > 100 µM
- TGI [31]: > 100 µM
- TGI [32]: > 100 µM
- TGI [33]: > 100 µM
- TGI [34]: > 100 µM
- TGI [35]: > 100 µM
- TGI [36]: > 100 µM
- TGI [37]: > 100 µM
- TGI [38]: > 100 µM
- TGI [39]: > 100 µM
- TGI [40]: > 100 µM
- TGI [41]: > 100 µM
- TGI [42]: > 100 µM
- TGI [43]: > 100 µM
- TGI [44]: > 100 µM
- TGI [45]: > 100 µM
- TGI [46]: > 100 µM
- TGI [47]: > 100 µM
- TGI [48]: > 100 µM
- TGI [49]: > 100 µM
- TGI [50]: > 100 µM
- TGI [51]: > 100 µM
- TGI [52]: > 100 µM
- TGI [53]: > 100 µM
- TGI [54]: > 100 µM
- TGI [55]: > 100 µM
- TGI [56]: > 100 µM
- TGI [57]: > 100 µM

SMILES: COc1cc(O)c2c(=O)c(OC)c(-c3ccc4c(c3)OCO4)oc2c1OC
- TGI [1]: > 50 µM
- TGI [2]: > 50 µM
- TGI [3]: > 50 µM
- TGI [58]: > 50 µM
- TGI [4]: > 50 µM
- TGI [5]: > 50 µM
- TGI [6]: > 50 µM
- TGI [7]: > 50 µM
- TGI [8]: > 50 µM
- TGI [9]: > 50 µM
- TGI [10]: > 50 µM
- TGI [11]: > 50 µM
- TGI [12]: > 50 µM
- TGI [13]: > 50 µM
- TGI [14]: > 50 µM
- TGI [15]: > 50 µM
- TGI [16]: > 50 µM
- TGI [17]: > 50 µM
- TGI [18]: > 50 µM
- TGI [19]: > 50 µM
- TGI [20]: 31.9 µM
- TGI [21]: > 50 µM
- TGI [22]: > 50 µM
- TGI [23]: > 50 µM
- TGI [24]: > 50 µM
- TGI [25]: > 50 µM
- TGI [26]: > 50 µM
- TGI [27]: > 50 µM
- TGI [28]: > 50 µM
- TGI [29]: > 50 µM
- TGI [31]: > 50 µM
- TGI [32]: > 50 µM
- TGI [33]: 44.2 µM
- TGI [34]: > 50 µM
- TGI [35]: > 50 µM
- TGI [37]: > 50 µM
- TGI [38]: > 50 µM
- TGI [39]: > 50 µM
- TGI [40]: > 50 µM
- TGI [41]: > 50 µM
- TGI [42]: > 50 µM
- TGI [59]: > 50 µM
- TGI [43]: > 50 µM
- TGI [44]: > 50 µM
- TGI [45]: > 50 µM
- TGI [46]: > 50 µM
- TGI [47]: > 50 µM
- TGI [48]: > 50 µM
- TGI [49]: > 50 µM
- TGI [50]: > 50 µM
- TGI [51]: > 50 µM
- TGI [52]: > 50 µM
- TGI [53]: > 50 µM
- TGI [54]: > 50 µM
- TGI [55]: > 50 µM
- TGI [56]: > 50 µM
- TGI [57]: > 50 µM

SMILES: O=C(Cn1c(=O)oc2ccc(C(=O)c3ccccc3Cl)cc21)c1ccc([N+](=O)[O-])cc1
- TGI [1]: 58.1 µM
- TGI [2]: 65.9 µM
- TGI [3]: 40.7 µM
- TGI [58]: > 100 µM
- TGI [4]: > 100 µM
- TGI [5]: > 100 µM
- TGI [6]: > 100 µM
- TGI [7]: > 100 µM
- TGI [8]: 47.5 µM
- TGI [9]: 81.7 µM
- TGI [10]: 65.4 µM
- TGI [11]: 30.9 µM
- TGI [12]: 69.5 µM
- TGI [13]: > 100 µM
- TGI [14]: > 100 µM
- TGI [15]: > 100 µM
- TGI [17]: > 100 µM
- TGI [18]: > 100 µM
- TGI [19]: 39.9 µM
- TGI [20]: > 100 µM
- TGI [21]: 39.1 µM
- TGI [22]: 66 µM
- TGI [23]: 40.5 µM
- TGI [24]: > 100 µM
- TGI [25]: > 100 µM
- TGI [26]: 65.5 µM
- TGI [27]: 39.6 µM
- TGI [28]: > 100 µM
- TGI [29]: > 100 µM
- TGI [30]: > 100 µM
- TGI [31]: 75 µM
- TGI [32]: > 100 µM
- TGI [33]: > 100 µM
- TGI [34]: 89.1 µM
- TGI [35]: > 100 µM
- TGI [36]: 77.2 µM
- TGI [37]: 83 µM
- TGI [38]: > 100 µM
- TGI [39]: > 100 µM
- TGI [40]: > 100 µM
- TGI [41]: 35.6 µM
- TGI [42]: > 100 µM
- TGI [59]: 56.5 µM
- TGI [43]: 46.6 µM
- TGI [44]: > 100 µM
- TGI [45]: > 100 µM
- TGI [46]: 90.3 µM
- TGI [47]: 59.4 µM
- TGI [48]: > 100 µM
- TGI [49]: > 100 µM
- TGI [50]: > 100 µM
- TGI [51]: > 100 µM
- TGI [52]: 34.6 µM
- TGI [53]: 55.7 µM
- TGI [54]: > 100 µM
- TGI [55]: 41.6 µM
- TGI [56]: > 100 µM
- TGI [57]: 79.7 µM

SMILES: Cn1c(N=[N+]=[N-])cc(=O)n(C)c1=O
- TGI [1]: > 100 µM
- TGI [2]: > 100 µM
- TGI [3]: > 100 µM
- TGI [58]: > 100 µM
- TGI [5]: > 100 µM
- TGI [6]: > 100 µM
- TGI [7]: > 100 µM
- TGI [8]: > 100 µM
- TGI [9]: > 100 µM
- TGI [10]: > 100 µM
- TGI [11]: > 100 µM
- TGI [12]: > 100 µM
- TGI [13]: > 100 µM
- TGI [14]: > 100 µM
- TGI [15]: > 100 µM
- TGI [16]: > 100 µM
- TGI [17]: > 100 µM
- TGI [18]: > 100 µM
- TGI [19]: > 100 µM
- TGI [21]: > 100 µM
- TGI [22]: > 100 µM
- TGI [23]: > 100 µM
- TGI [24]: > 100 µM
- TGI [25]: > 100 µM
- TGI [26]: > 100 µM
- TGI [27]: > 100 µM
- TGI [30]: > 100 µM
- TGI [31]: > 100 µM
- TGI [32]: > 100 µM
- TGI [33]: > 100 µM
- TGI [35]: > 100 µM
- TGI [36]: > 100 µM
- TGI [37]: > 100 µM
- TGI [38]: > 100 µM
- TGI [39]: > 100 µM
- TGI [40]: > 100 µM
- TGI [41]: > 100 µM
- TGI [42]: > 100 µM
- TGI [59]: > 100 µM
- TGI [43]: > 100 µM
- TGI [44]: > 100 µM
- TGI [45]: > 100 µM
- TGI [46]: > 100 µM
- TGI [47]: > 100 µM
- TGI [48]: > 100 µM
- TGI [49]: > 100 µM
- TGI [50]: > 100 µM
- TGI [51]: > 100 µM
- TGI [52]: > 100 µM
- TGI [53]: > 100 µM
- TGI [54]: > 100 µM
- TGI [55]: > 100 µM
- TGI [56]: > 100 µM
- TGI [57]: > 100 µM
